Source: ChEMBL document CHEMBL1134816, “Synthesis of 7,8-disubstituted benzolactam-V8 and its binding to protein kinase C” (Bioorg Med Chem Lett, 2001)

Experiments:
[1] = molecular target: Protein kinase C alpha type (Homo sapiens, UniProt P17252); assay: Displacement phorbol 12,13-dibutyrate(PDBU) binding from recombinant Protein kinase C alpha
[2] = molecular target: Protein kinase C delta type (Homo sapiens, UniProt Q05655); assay: Binding affinity for protein kinase C delta
[3] = molecular target: T1, Protein kinase C epsilon type (Homo sapiens, UniProt Q02156); assay: Binding affinity for protein kinase C epsilon
T1 sequence (Q02156 whole entry): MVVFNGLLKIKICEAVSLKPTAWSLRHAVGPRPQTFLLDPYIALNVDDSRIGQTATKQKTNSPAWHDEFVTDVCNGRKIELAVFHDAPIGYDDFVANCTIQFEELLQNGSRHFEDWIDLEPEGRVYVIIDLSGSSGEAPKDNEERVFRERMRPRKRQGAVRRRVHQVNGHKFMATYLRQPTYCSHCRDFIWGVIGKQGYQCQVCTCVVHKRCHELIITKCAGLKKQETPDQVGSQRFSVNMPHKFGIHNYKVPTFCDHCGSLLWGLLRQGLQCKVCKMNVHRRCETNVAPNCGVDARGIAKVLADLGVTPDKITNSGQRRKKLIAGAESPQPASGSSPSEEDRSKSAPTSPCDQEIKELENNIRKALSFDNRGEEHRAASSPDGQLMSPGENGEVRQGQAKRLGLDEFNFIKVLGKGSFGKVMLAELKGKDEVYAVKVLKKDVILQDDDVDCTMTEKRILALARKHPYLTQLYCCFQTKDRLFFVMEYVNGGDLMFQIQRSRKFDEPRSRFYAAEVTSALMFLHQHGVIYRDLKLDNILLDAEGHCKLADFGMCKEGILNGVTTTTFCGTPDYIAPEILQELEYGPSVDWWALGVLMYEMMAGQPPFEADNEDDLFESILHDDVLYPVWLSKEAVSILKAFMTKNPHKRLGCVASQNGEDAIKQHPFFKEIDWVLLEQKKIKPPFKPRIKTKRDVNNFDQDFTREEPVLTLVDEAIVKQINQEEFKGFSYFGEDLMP

Protein kinase C delta type, sequence (Q05655 whole entry): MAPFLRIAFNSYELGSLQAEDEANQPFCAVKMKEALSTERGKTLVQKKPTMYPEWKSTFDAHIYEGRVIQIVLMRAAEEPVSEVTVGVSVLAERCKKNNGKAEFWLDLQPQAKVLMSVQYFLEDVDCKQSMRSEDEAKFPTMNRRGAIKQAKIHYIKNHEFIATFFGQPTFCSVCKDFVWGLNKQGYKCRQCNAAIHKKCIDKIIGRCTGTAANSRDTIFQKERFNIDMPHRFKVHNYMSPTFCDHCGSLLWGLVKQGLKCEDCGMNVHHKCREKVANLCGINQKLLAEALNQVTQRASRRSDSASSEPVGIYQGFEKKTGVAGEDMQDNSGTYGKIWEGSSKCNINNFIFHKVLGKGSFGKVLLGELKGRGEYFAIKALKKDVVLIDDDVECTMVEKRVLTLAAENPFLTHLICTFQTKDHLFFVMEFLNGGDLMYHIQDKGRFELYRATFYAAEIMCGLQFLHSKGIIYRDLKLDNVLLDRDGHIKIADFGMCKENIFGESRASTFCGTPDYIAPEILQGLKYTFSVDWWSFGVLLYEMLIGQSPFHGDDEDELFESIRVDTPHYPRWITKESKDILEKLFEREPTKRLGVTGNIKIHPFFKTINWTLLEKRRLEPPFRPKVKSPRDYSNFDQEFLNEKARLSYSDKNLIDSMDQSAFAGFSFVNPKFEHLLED

| Ki [1] [nM] | Ki [2] [nM] | Ki [3] [nM] | Compound |
| --- | --- | --- | --- |
| 7160 |  |  | COc1cccc2c1C[C@@H](CO)NC(=O)[C@H](C(C)C)N2C |
| 45.6 | 91.1 | 121 | CCCCCCCCC#Cc1ccc2c(c1OC)C[C@@H](CO)NC(=O)[C@H](C(C)C)N2C |
